Experimental data from patent US20240285553A1, “METHODS TO MODULATE MITOPHAGY WITH SREBP SIGNALING PATHWAY ACTIVATORS” (THE TRUSTEES OF INDIANA UNIVERSITY, priority 2021, published 2024).
Entries after “also recorded” stand apart in the source; their conditions may differ.

Key:
[1] = system: pulmonary arterial endothelial cells (PAECs); assay: Western blot of mitochondrial marker TOM20 as measure of mitophagy; format: cell-based, human; details: for Tom20 levels (mitophagy): ECs / PAEC
Description: Western blot. Cell lysates were resolved on a SDS PAGE pre-cast gel (Invitrogen) and resolved proteins were transferred on to a PVDF membrane for further detection of proteins using specific antibodies. Antibodies for SREBP1 were purchased from Santa Cruz Biotechnology (Cat #sc-365513) and Novus biological (Cat #NB100-2215). SCD antibody was purchased from Santa Cruz Biotechnology (Cat #sc-58420). Tom20 and LAMP1 antibodies were purchased from Cell Signaling (Cat #42406S and 15665S, respectively).
(§1) First, degradation of a mitochondrial marker (TOM20) was evaluated as a bio-chemical marker of mitophagy induction.

PAEC / ECs = assay: Immunofluorescence microscopy of Tom20 and lysosomal marker LAMP1 (mitophagy); format: cell-based, human; details: for mitophagy by immunofluorescence (Tom20/Lamp1): ECs
Description: Immunofluorescence Microscopy. Cells were fixed with 4% Formaldehyde (Electron Microscopy Sciences, #C993M24) and permeabilized in the presence of 0.1% Triton X-100 (Sigma). Full-length SREBP1 was stained using mouse monoclonal antibody from Santa Cruz Biotechnology (Cat #sc-365513). Whereas nuclear SREBP1 was detected using antibody from Novus biological (Cat #NB100-2215). […] Tom20 and LAMP1 antibodies were purchased from Cell Signaling (Cat #42406S and 15665S, respectively). Images were captured on an inverted fluorescent microscope (Leica).
as §1
Fixed cells were stained with Tom20 and Lamp1 and the fluorescence images were captured on a fluorescence microscope.

ECs = assay: Transmission electron microscopy for mitophagy; format: cell-based, human; details: 10 uM propranolol, 10 uM R-propranolol or 0.1 uM JW480 for 12 hours
Procedure: Transmission Electron Microscopy. […] Thin sections from these fixed cell blocks were visualized on Tecnai Spirit (ThermoFisher) TEM Microscope. Images captured were analyzed.
TEM evidence. […] ECs exposed to these drugs were fixed and the images were captured on a TEM.

MCT-induced PAH in rats = assay: Rat MCT (monocrotaline) model of PAH; format: in vivo
Procedure: Rat MCT model of PAH. SD rats were given one dose of MCT injection to induce pulmonary hypertension. […] Rats were anesthetized and RVSP recorded.
Rats were injected with MCT to develop PAH in a well-established 4 week rodent model of the disease.

SREBP1 pathway = assay: RNA sequencing and pathway analysis of propranolol-treated ECs; format: cell-based, human; details: ECs treated with propranolol
Description: SREBP1 is a key transcription factor that promotes lipid synthesis upon activation. Normally, SREBP1 protein is retained in the endoplasmic reticulum by high levels of cholesterol. When the cholesterol levels drop, SREBP1 protein gets translocated to the Golgi where it is cleaved, and the transcriptional activation portion of this protein gets translocated to the nucleus. Subsequently, SREBP1 activates a transcription program of genes involved in lipid synthesis. RNAseq data was generated to study mechanisms of propranolol-mediated PAEC mitophagy induction. […] ECs were treated with propranolol and the total RNA isolated from the cells were subjected to high through-put RNA sequencing.

SREBP1 [2] = assay: Western blot of SREBP1, SCD and NCEH1 (SREBP1 activation); format: cell-based, human; details: for SCD (SREBP1 target) levels / SREBP1 levels (non-cleaved; decrease indicates cleavage and activation): ECs / PAEC; for SCD (SREBP1 target) levels / SREBP1 levels (non-cleaved; decrease indicates cleavage and activation) / NCEH1 levels: western blot
Description: Western blot. Cell lysates were resolved on a SDS PAGE pre-cast gel (Invitrogen) and resolved proteins were transferred on to a PVDF membrane for further detection of proteins using specific antibodies. Antibodies for SREBP1 were purchased from Santa Cruz Biotechnology (Cat #sc-365513) and Novus biological (Cat #NB100-2215). SCD antibody was purchased from Santa Cruz Biotechnology (Cat #sc-58420). Tom20 and LAMP1 antibodies were purchased from Cell Signaling (Cat #42406S and 15665S, respectively). […]

SREBP1 [3] = assay: Immunofluorescence of SREBP1 nuclear accumulation; format: cell-based, human; details: ECs, IF
Description: Immunofluorescence Microscopy. Cells were fixed with 4% Formaldehyde (Electron Microscopy Sciences, #C993M24) and permeabilized in the presence of 0.1% Triton X-100 (Sigma). Full-length SREBP1 was stained using mouse monoclonal antibody from Santa Cruz Biotechnology (Cat #sc-365513). Whereas nuclear SREBP1 was detected using antibody from Novus biological (Cat #NB100-2215). Mitophagy was confirmed by staining mitochondrial Tom20 and lysosomal marker LAMP1. Tom20 and LAMP1 antibodies were purchased from Cell Signaling (Cat #42406S and 15665S, respectively). Images were captured on an inverted fluorescent microscope (Leica).
NCEH1 knockdown experiments. NCEH1 was depleted using siRNA pool from Dharmacon or Lentiviral shRNA from Sigma. NCEH1 depletion was confirmed on a Western blot or by immunofluorescence assay.
Although pharmacological inhibition of NCEH1 promoted nuclear accumulation of SREBP1, genetic evidence further supports these observations. To this end, ECs were transfected with control or siNCEH1 siRNA and localization of SREBP1 or NCEH1 was captured on IF microscope.

SREBP1-NCEH1 complex = molecular target: T1, SREBP1-NCEH1 complex (Homo sapiens, UniProt Q6PIU2); assay: Immunoprecipitation of endogenous SREBP1-NCEH1 complex; format: cell-based; details: ECs, vs vehicle
T1 construct: endogenous in cells; host or cells: cultured endothelial cells (ECs)
T1 sequence (Q6PIU2 1-408): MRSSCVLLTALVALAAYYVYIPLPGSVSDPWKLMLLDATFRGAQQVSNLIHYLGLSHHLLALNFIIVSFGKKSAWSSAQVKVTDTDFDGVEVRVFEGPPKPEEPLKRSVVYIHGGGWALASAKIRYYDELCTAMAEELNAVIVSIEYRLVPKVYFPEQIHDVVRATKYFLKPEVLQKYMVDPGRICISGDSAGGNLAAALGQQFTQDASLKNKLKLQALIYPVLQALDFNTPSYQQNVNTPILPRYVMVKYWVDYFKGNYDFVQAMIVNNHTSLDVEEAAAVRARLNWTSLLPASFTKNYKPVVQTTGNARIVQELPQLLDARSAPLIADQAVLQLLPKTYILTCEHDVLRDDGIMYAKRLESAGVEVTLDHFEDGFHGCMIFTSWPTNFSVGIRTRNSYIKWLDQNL
Procedure: Immunoprecipitation Assay. In determining endogenous SREBP1-NCEH1 complex formation, cultured endothelial cells were treated with IP lysis buffer (Pierce Cat #87787). SREBP1 complex was captured using SREBP1 antibody from Santa Cruz Biotechnology (Cat #sc-365513) and resolved on a SDS PAGE. Complex formation with NCEH1 was detected by blotting with NCEH1 antibodies (Sigma Cat #HPA026888). To map the domain of SREBP1 that binds to NCEH1, HA tagged full-length SREBP1 or C-terminal regulatory domain alone were co-expressed along with Flag tagged NCEH1 in HEK293 cells. SREBP proteins were captured on HA antibodies (Cell Signaling) and blotted with Flag antibodies (Sigma).

[4] = molecular target: T2, NCEH1-phosphatidylserine interactions (Homo sapiens, UniProt Q6PIU2); assay: Dot blot membrane strip assay of NCEH1 binding to phosphatidylserine; details: purified NCEH1 protein on lipid membrane strip, in vitro
T2 sequence (Q6PIU2 1-408): T1 sequence (Q6PIU2 1-408)
Procedure: Membranes having the specified compounds were incubated with purified NCEH1 protein and the membrane was developed with NCEH1 antibody. […] ECs were treated with papuamide and cell extracts were blotted with indicated antibodies.

HF-PH mice = assay: High-fat diet AKR/J HF-PH mouse model; format: in vivo; details: 4 weeks, implanted mini osmotic pump, vs vehicle
Description: FIG. 14: Using a mouse model fed a high-fat diet, AKR/J mice develop obesity, insulin resistance, heart failure with preserved ejection fraction, and pulmonary hypertension and are designated as “HF-PH mice”.
Using a mouse model fed a high-fat diet (Research Diets, New Brunswick, NJ) for 16-20 weeks, AKR/J mice (Jackson Laboratories, Bar Harbor, ME) develop obesity, insulin resistance, heart failure with preserved ejection fraction, and pulmonary hypertension. (Meng, et al., 2017; Arwood, et al., 2019).

[5] = system: myocardial infarction in mice; assay: Myocardial infarction (MI) mouse model, ligation of the left coronary artery; format: in vivo
Procedure: Ligation of the left coronary artery is a well-accepted mouse model of myocardial infarction (MI), associated with high mortality (>70% in lwk). […] Mice were treated with vehicle or 20 mg/kg JW480 (IP, n=6 males & 6 females) for five days and subjected to an MI.

[6] = system: laser-induced CNV in mice; assay: Laser-induced choroidal neovascularization (CNV) mouse model; format: in vivo; details: 20 mg/kg for seven days
Procedure: The eye offers an opportune model to study vascular pathology. The laser-induced choroidal neovascularization (CNV)) mouse model is used to study pathologic exudative angiogenesis as a major contributor to age-related macular degeneration (AMD). To test the protective effects of NCEH1 blockade, CNV was induced in two groups of mice that are exposed to either vehicle or 20 mg/kg of JW480 for seven days (n=12 each). […] Cumulatively, these mice studies provide evidence for the therapeutic use of JW480 in pathological CV conditions.

[7] = donor (non-PAH control)-derived PAEC / normal control ECs

Compound: CC(C)NCC(O)COc1cccc2ccccc12 (racemic) [propranolol]
- Tom20 levels (mitophagy) [1]: decreased Tom20 levels; also recorded: robustly induced mitophagy; also recorded: TOM20 levels go down; also recorded: lower
- mitophagy induction (TOM20 level) ([1]; PAH patient-derived PAEC): reduced TOM20 levels; also recorded: consistently decreased Tom20 levels in PAH patient cells much more robustly than in normal cells
- mitophagy induction (TOM20 level) [1, 7]: reduced TOM20 across all cells
- mitophagy by immunofluorescence (Tom20/Lamp1) (PAEC / ECs): induce mitophagy; also recorded: Tom20 was mobilized to lysosome
- TOM20/Lamp1 co-staining (PAEC / ECs; propranolol treated PAH patient-derived PAEC): reduced TOM20/Lamp1 co-staining
- mitophagy by TEM (bilipid membrane formation around mitochondria) (ECs): promotes bilipid membrane formation around mitochondria more frequently than vehicle treated cells; also recorded: promoted mitophagy
- right ventricle systolic pressures (RVSP) (MCT-induced PAH in rats; 10 mg/kg IP for the last 2 of 4 weeks): significantly reduced
- MCT-induced arterial wall thickness (MCT-induced PAH in rats; 10 mg/kg IP, lung sections H&E): negated MCT-induced arterial wall thickness
- SREBP1 transcriptional targets and transcript levels (RNA-seq) (SREBP1 pathway): activated transcriptional targets, as well as transcript levels of SREBP1
- SCD (SREBP1 target) levels (SREBP1 [2]): increased; also recorded: elevated
- SREBP1 levels (non-cleaved; decrease indicates cleavage and activation) (SREBP1 [2]): SREBP1 levels go down; also recorded: reduce SREBP1 levels
- NCEH1 levels (SREBP1 [2]; ECs): higher
- effect on inhibitor effects of fatostatin (SREBP1 [2]; PAEC, propranolol with fatostatin, last lane of western blot): able to rescue inhibitor effects of fatostatin
- nuclear translocation of SREBP1 (SREBP1 [3]): promoted nuclear translocation of SREBP1
- full length SREBP1 immunoprecipitated (SREBP1-NCEH1 complex; anti-SREBP1 antibody beads): less full length SREBP1 immunoprecipitated
- NCEH1 complexed with full length SREBP1 (SREBP1-NCEH1 complex; blotted with NCEH1 antibody): reduced NCEH1 complexed with full length SREBP1
- NCEH1-phosphatidylserine interaction [4]: disrupts NCEH1-phosphatidylserine interactions
- right ventricular systolic pressure (HF-PH mice): significantly decreased

Compound: N#CC(C#N)=NNc1cccc(Cl)c1 [CCCP, carbonyl cyanide m-chlorophenylhydrazone]
- mitophagy induction (TOM20 level) ([1]; PAH patient-derived PAEC): not observed; also recorded: failed to promote mitophagy
- mitophagy induction (TOM20 level) [1, 7]: induced mitophagy; also recorded: promotes mitophagy

Compound: CC(C)c1ccccc1OC(=O)NCCc1ccc2ccccc2c1 [JW480]
- Tom20 levels (mitophagy) [1]: lower
- Tom20 levels (mitophagy) ([1]; listed as NCEH1): reduced the levels of Tom20
- mitophagy by immunofluorescence (Tom20/Lamp1) (PAEC / ECs): Tom20 was mobilized to lysosome
- mitophagy by TEM (bilipid membrane formation around mitochondria) (ECs): promoted mitophagy
- SCD (SREBP1 target) levels (SREBP1 [2]): elevated
- SREBP1 levels (non-cleaved; decrease indicates cleavage and activation) (SREBP1 [2]): reduce SREBP1 levels
- SCD (SREBP1 target) levels (SREBP1 [2]; listed as NCEH1): sufficient to activate SREBP1 target SCD
- NCEH1 levels (SREBP1 [2]; ECs): higher
- nuclear translocation of SREBP1 (SREBP1 [3]): promoted nuclear translocation of SREBP1
- NCEH1-phosphatidylserine interaction [4]: disrupts NCEH1-phosphatidylserine interactions
- intracellular lipid droplets (TEM) ([5]; JW480-treated mice): increased intracellular lipid droplets
- survival after MI ([5]; mice, 20 mg/kg IP for five days before MI): significantly improved survival
- pathologic CNV [6]: inhibited pathologic CNV
- retinal vessel leakage [6]: significantly reduced retinal vessel leakage

Compound: CCN(CC)CCO[C@H]1CC[C@@]2(C)C(=CC[C@@H]3[C@@H]2CC[C@]2(C)C(=O)CC[C@@H]32)C1.Cl [U18666A]
- mitophagy by immunofluorescence (Tom20/Lamp1) (PAEC / ECs): induce mitophagy

Compound: COCCc1ccc(OCC(O)CNC(C)C)cc1 (stereo not drawn) [metoprolol]
- Tom20 levels (mitophagy) [1]: failed to promote mitophagy

Compound: OC(CNCC(O)C1CCc2cc(F)ccc2O1)C1CCc2cc(F)ccc2O1 (stereo not drawn) [nebivolol]
- Tom20 levels (mitophagy) [1]: failed to promote mitophagy

Compound: papuamide
- activation of non-canonical SREBP1 pathway (SREBP1 [2]; ECs, cell extracts blotted): activate a non-canonical SREBP1 pathway
- nuclear translocation of SREBP1 (SREBP1 [3]): promotes nuclear translocation of SREBP1
